Data as given in BindingDB's records for PubMed 8558445 (Abbott Laboratories, 1996).

These compounds were tested against Neuronal acetylcholine receptor subunit alpha-4 (Homo sapiens, UniProt P43681).
Sequence of Neuronal acetylcholine receptor subunit alpha-4 (P43681 whole entry): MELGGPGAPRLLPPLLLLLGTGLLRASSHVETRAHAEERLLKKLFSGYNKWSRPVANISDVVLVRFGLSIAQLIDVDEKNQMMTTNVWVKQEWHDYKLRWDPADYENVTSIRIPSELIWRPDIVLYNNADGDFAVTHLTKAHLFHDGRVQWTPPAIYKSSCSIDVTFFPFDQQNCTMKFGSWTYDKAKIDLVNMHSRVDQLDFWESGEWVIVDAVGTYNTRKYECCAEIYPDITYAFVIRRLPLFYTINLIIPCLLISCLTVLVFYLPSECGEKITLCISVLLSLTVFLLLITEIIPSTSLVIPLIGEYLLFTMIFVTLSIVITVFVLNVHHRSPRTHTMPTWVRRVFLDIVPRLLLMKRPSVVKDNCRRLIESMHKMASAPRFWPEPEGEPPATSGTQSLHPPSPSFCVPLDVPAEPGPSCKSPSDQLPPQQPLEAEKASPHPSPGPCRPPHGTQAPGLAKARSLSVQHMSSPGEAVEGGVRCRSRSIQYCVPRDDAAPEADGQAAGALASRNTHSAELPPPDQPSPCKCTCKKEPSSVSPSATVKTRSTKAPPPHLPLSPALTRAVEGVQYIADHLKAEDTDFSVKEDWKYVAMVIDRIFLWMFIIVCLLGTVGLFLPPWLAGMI

| Compound | Ki |
| --- | --- |
| CN1[C@@H](C[C@@H](O)c2ccccc2)CCC[C@H]1CC(=O)c1ccccc1 [Lobeline] | 1.92 nM |
| O=c1cccc2n1C[C@H]1CNC[C@H]2C1 [(1S,9R)-7,11-diazatricyclo[7.3.1.0~2,7~]trideca-2,4-dien-6-one] | 0.43 nM |
| CNC1(C)C2CCC(C2)C1(C)C (stereo unspecified) [Methyl-(2,3,3-trimethyl-bicyclo[2.2.1]hept-2-yl)-amine(Mecamylamine)] | > 10000 nM |
| C[N+](C)(C)CC[N+]1(C)Cc2c(Cl)c(Cl)c(Cl)c(Cl)c2C1 [CAS_6243] | > 10000 nM |
| C[N+](C)(C)CCCCCCCCCC[N+](C)(C)C [Decamethonium Iodide] | 962 nM |
| C[N+]1(C)CCN(c2ccccc2)CC1 [DMPP] | 10.7 nM |
| C[N+](C)(C)CCOC(N)=O [(2-Hydroxyethyl)trimethyl ammonium chloride carbamate] | 68.2 nM |
| C=C(C=O)C[C@H]1C[C@H](O)[C@]2(C)O[C@@H]3C[C@@H]4O[C@@H]5C[C@]6(C)O[C@]7(C)CC[C@@H]8O[C@@H]9C[C@]%10(C)O[C@@H]%11C(C)=CC(=O)O[C@H]%11C[C@H]%10O[C@H]9C[C@@H](C)[C@H]8O[C@H]7C[C@H]6O[C@@]5(C)C/C=C\[C@H]4O[C@H]3C[C@H]2O1 | 4730 nM |
| CCN1C[C@]2(COC(=O)c3ccccc3-n3c(O)cc(C)c3O)CC[C@H](OC)[C@]34C5C[C@@H]6[C@@H](OC)C[C@@](O)(C5[C@H]6OC)[C@@](O)(C13)[C@@H](OC)C24 (stereo partly drawn) [[(1S,4S,5R,6S,8R,9R,13S,16S,18S)-11-ethyl-8,9-dihydroxy-4,6,16,18-tetramethoxy-11-azahexacyclo[7.7.2.1^{2,5}.0^{1,10}.0^{3,8}.0^{13,17}]nonadecan-13-yl]methyl 2-[(3S)-3-methyl-2,5-dioxopyrrolidin-1-yl]benzoate] | 3210 nM |
| COc1cc2c3cc1Oc1cc(ccc1O)C[C@H]1c4c(cc(OC)c(O)c4Oc4ccc(cc4)C[C@@H]3N(C)CC2)CC[N+]1(C)C [CAS_57-94-3] | 3480 nM |
| c1cncc(C2CCCCN2)c1 (stereo not drawn) [(+-)-anabasine] | 37.6 nM |
